Test results taken from patent US11247965B2 (VenatoRx Pharmaceuticals, Inc., priority 2017, dated 2022).

Experiments:
[1] = test system: HBV replication in HepAD38 cells; test: Anti-HBV activity in HepAD38 cells, extracellular HBV DNA by QPCR; assay type: cell-based, HBV (genotype D, serotype ayw); settings: Hepatitis B virus, HePAD38, 168 h, read-out: Anti-HBV EC50, HepAD38 cells, extracellular HBV DNA by QPCR, 7 days of incubation
In short: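 Seven-day compound exposure (30 μM down to 10 nM, half-log steps) after tetracycline withdrawal induced HBV replication in HepAD38 cells. Extracellular viral DNA measured by QPCR (copies/mL via standard curve), normalised to DMSO wells; EC50 from 4-parameter non-linear regression.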

[2] = In vitro cytotoxicity, MTT cell viability assay in HepG2 cells; assay type: cell-based; settings: human, Cytotoxicity CC50
In short: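 CC50 values reflect loss of HepG2 viability after a 7-day exposure at 37 °C, 5% CO2. After 3-4 h with MTT, solubilized formazan was quantified at 492 nm relative to vehicle wells.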

Compound CNC(=O)NCC(=O)N1CC2CN(C(=O)C(F)(F)c3cc(C(=O)Nc4ccc(F)c(C)c4)ccc3F)CC2C1 (stereo not shown) [Example 284, 3-(1,1-difluoro-2-(5-((methylcarbamoyl)glycyl)hexahydropyrrolo[3,4-c]pyrrol-2(1H)-yl)-2-oxoethyl)-4-fluoro-N-(4-fluoro-3-methylphenyl)benzamide] has an EC50 [1] of 5 to 30 µM and a CC50 at 7 days [2] of over 30 µM.
Work on Cc1cc(NC(=O)c2ccc(F)c(C(F)(F)C(=O)N3CCC(N)C(C)(C)C3)c2)ccc1F (stereo not shown) [Example 285, 3-(2-(4-amino-3,3-dimethylpiperidin-1-yl)-1,1-difluoro-2-oxoethyl)-4-fluoro-N-(4-fluoro-3-methylphenyl)benzamide] yielded an EC50 [1] of under 5 µM and a CC50 at 7 days [2] of 5 to 30 µM.
For Cc1cc(NC(=O)c2ccc(F)c(C(F)(F)C(=O)N3CCC(NS(C)(=O)=O)C(C)(C)C3)c2)ccc1F (stereo not shown) [Example 286, 3-(2-(3,3-dimethyl-4-(methylsulfonamido)piperidin-1-yl)-1,1-difluoro-2-oxoethyl)-4-fluoro-N-(4-fluoro-3-methylphenyl)benzamide], the EC50 [1] was under 5 µM and the CC50 at 7 days [2] was 5 to 30 µM.
In the case of CC(=O)NC1CCN(C(=O)C(F)(F)c2cc(C(=O)Nc3ccc(F)c(C)c3)ccc2F)CC1(C)C (stereo not shown) [Example 287, 3-(2-(4-acetamido-3,3-dimethylpiperidin-1-yl)-1,1-difluoro-2-oxoethyl)-4-fluoro-N-(4-fluoro-3-methylphenyl)benzamide], the EC50 [1] is reported as under 5 µM and the CC50 at 7 days [2] is reported as 5 to 30 µM.
For CC(=O)Nc1nc2c(s1)CN(C(=O)C(F)(F)c1cc(C(=O)Nc3ccc(F)c(C)c3)ccc1F)CC2 [Example 288, 3-(2-(2-acetamido-6,7-dihydrothiazolo[5,4-c]pyridin-5(4H)-yl)-1,1-difluoro-2-oxoethyl)-4-fluoro-N-(4-fluoro-3-methylphenyl)benzamide], the EC50 [1] was under 5 µM and the CC50 at 7 days [2] was 5 to 30 µM.
Work on Cc1cc(NC(=O)c2ccc(F)c(C(F)(F)C(=O)N3CCc4[nH]c(=O)oc4C3)c2)ccc1F [Example 289, 3-(1,1-difluoro-2-oxo-2-(2-oxo-1,4,6,7-tetrahydrooxazolo[5,4-c]pyridin-5(2H)-yl)ethyl)-4-fluoro-N-(4-fluoro-3-methylphenyl)benzamide] yielded an EC50 [1] of under 5 µM and a CC50 at 7 days [2] of 5 to 30 µM.
Cc1cc(NC(=O)c2ccc(F)c(C(F)(F)C(=O)N3[C@H](C)CN(S(=O)(=O)c4cccnc4)C[C@@H]3C)c2)ccc1F [Example 290, 3-(2-((2S,6R)-2,6-dimethyl-4-(pyridin-3-ylsulfonyl)piperazin-1-yl)-1,1-difluoro-2-oxoethyl)-4-fluoro-N-(4-fluoro-3-methylphenyl)benzamide] gave an EC50 [1] of under 5 µM and a CC50 at 7 days [2] of 5 to 30 µM.
With CNS(=O)(=O)N1C[C@@H](C)N(C(=O)C(F)(F)c2cc(C(=O)Nc3ccc(F)c(C)c3)ccc2F)[C@@H](C)C1 [Example 291, 3-(2-((2S,6R)-2,6-dimethyl-4-(N-methylsulfamoyl)piperazin-1-yl)-1,1-difluoro-2-oxoethyl)-4-fluoro-N-(4-fluoro-3-methylphenyl)benzamide] the EC50 [1] was under 5 µM and the CC50 at 7 days [2] was 5 to 30 µM.
Work on Cc1cc(NC(=O)c2ccc(F)c(C(F)(F)C(=O)N3[C@H](C)CN(S(=O)(=O)C4CC4)C[C@@H]3C)c2)ccc1F [Example 292, 3-(2-((2S,6R)-4-(cyclopropylsulfonyl)-2,6-dimethylpiperazin-1-yl)-1,1-difluoro-2-oxoethyl)-4-fluoro-N-(4-fluoro-3-methylphenyl)benzamide] yielded an EC50 [1] of under 5 µM and a CC50 at 7 days [2] of 5 to 30 µM.
In the case of Cc1cc(NC(=O)c2ccc(F)c(C(F)(F)C(=O)N3[C@H](C)CN(S(C)(=O)=O)C[C@@H]3C)c2)ccc1F [Example 293, 3-(2-((2S,6R)-2,6-dimethyl-4-(methylsulfonyl)piperazin-1-yl)-1,1-difluoro-2-oxoethyl)-4-fluoro-N-(4-fluoro-3-methylphenyl)benzamide], the EC50 [1] is reported as under 5 µM and the CC50 at 7 days [2] is reported as 5 to 30 µM.
For CC(=O)N1C[C@@H](C)N(C(=O)C(F)(F)c2cc(C(=O)Nc3ccc(F)c(C)c3)ccc2F)[C@@H](C)C1 [Example 294, 3-(2-((2S,6R)-4-acetyl-2,6-dimethylpiperazin-1-yl)-1,1-difluoro-2-oxoethyl)-4-fluoro-N-(4-fluoro-3-methylphenyl)benzamide], the EC50 [1] was under 5 µM and the CC50 at 7 days [2] was 5 to 30 µM.
In the case of CC(=O)N1[C@H](C)CN(C(=O)C(F)(F)c2cc(C(=O)Nc3ccc(F)c(C)c3)ccc2F)C[C@@H]1C [Example 295, 3-(2-((3R,5S)-4-acetyl-3,5-dimethylpiperazin-1-yl)-1,1-difluoro-2-oxoethyl)-4-fluoro-N-(4-fluoro-3-methylphenyl)benzamide], the EC50 [1] is reported as under 5 µM and the CC50 at 7 days [2] is reported as 5 to 30 µM.
In the case of Cc1cc(NC(=O)c2ccc(F)c(C(F)(F)C(=O)N3C[C@@H](C)N[C@@H](C)C3)c2)ccc1F [Example 296, 3-(2-((3R,5S)-3,5-dimethylpiperazin-1-yl)-1,1-difluoro-2-oxoethyl)-4-fluoro-N-(4-fluoro-3-methylphenyl)benzamide], the EC50 [1] is reported as under 5 µM and the CC50 at 7 days [2] is reported as 5 to 30 µM.
For Cc1cc(NC(=O)c2ccc(F)c(C(F)(F)C(=O)N3CCn4nncc4C3)c2)ccc1F [Example 297, 3-(2-(6,7-dihydro-[1,2,3]triazolo[1,5-a]pyrazin-5(4H)-yl)-1,1-difluoro-2-oxoethyl)-4-fluoro-N-(4-fluoro-3-methylphenyl)benzamide], the EC50 [1] was under 5 µM and the CC50 at 7 days [2] was 5 to 30 µM.
Cc1cc(NC(=O)c2ccc([N+](=O)[O-])c(C(F)(F)C(=O)N3CCC(O)CC3)c2)ccc1F [Example 298, 3-(1,1-difluoro-2-(4-hydroxypiperidin-1-yl)-2-oxoethyl)-N-(4-fluoro-3-methylphenyl)-4-nitrobenzamide] showed an EC50 [1] of under 5 µM and a CC50 at 7 days [2] of 5 to 30 µM.
Cc1cc(NC(=O)c2ccc(N)c(C(F)(F)C(=O)N3CCC(O)CC3)c2)ccc1F [Example 299, 4-amino-3-(1,1-difluoro-2-(4-hydroxypiperidin-1-yl)-2-oxoethyl)-N-(4-fluoro-3-methylphenyl)benzamide] showed an EC50 [1] of under 5 µM and a CC50 at 7 days [2] of 5 to 30 µM.
Cc1cc(NC(=O)c2ccc(F)c(C(F)(F)C(=O)N3CCC(O)CC3)n2)ccc1F [Example 300, 6-(1,1-difluoro-2-(4-hydroxypiperidin-1-yl)-2-oxoethyl)-5-fluoro-N-(4-fluoro-3-methylphenyl)picolinamide] gave an EC50 [1] of under 5 µM and a CC50 at 7 days [2] of 5 to 30 µM.
With Cc1cc(NC(=O)c2ccc(F)c(C(F)(F)C(=O)N3CCC(NC(=O)CN4CCC(O)CC4)C(C)(C)C3)c2)ccc1F (stereo not shown) [Example 301, 3-(1,1-difluoro-2-(4-(2-(4-hydroxypiperidin-1-yl)acetamido)-3,3-dimethylpiperidin-1-yl)-2-oxoethyl)-4-fluoro-N-(4-fluoro-3-methylphenyl)benzamide] the EC50 [1] was under 5 µM and the CC50 at 7 days [2] was 5 to 30 µM.
For CNCC(=O)NC1CCN(C(=O)C(F)(F)c2nc(C(=O)Nc3ccc(F)c(C)c3)ccc2F)CC1(C)C (stereo not shown) [Example 302, 6-(2-(3,3-dimethyl-4-(2-(methylamino)acetamido)piperidin-1-yl)-1,1-difluoro-2-oxoethyl)-5-fluoro-N-(4-fluoro-3-methylphenyl)picolinamide], the EC50 [1] was under 5 µM and the CC50 at 7 days [2] was 5 to 30 µM.
Cc1cc(NC(=O)c2ccc(F)c(C(F)(F)C(=O)N3CCc4nc(N)sc4C3)n2)ccc1F [Example 303, 6-(2-(2-amino-6,7-dihydrothiazolo[5,4-c]pyridin-5(4H)-yl)-1,1-difluoro-2-oxoethyl)-5-fluoro-N-(4-fluoro-3-methylphenyl)picolinamide] showed an EC50 [1] of under 5 µM and a CC50 at 7 days [2] of 5 to 30 µM.
